Columns and labels:
SUM159 cells = experiment: SUM159 cell growth (Cell-Titer Glo, cell counts); assay type: cell-based, human; settings: 5 μM MEK inhibitor (FIG. 2A)
Experimental: Cell Culture: MDA-MB-231 cells were grown in DMEM/F12 supplemented with 10% FBS. SUM-159 cells were grown in DMEM/F12 supplemented with 10% FBS 1 μg/mL hydrocortisone, and 5 μg/mL insulin. SUM159-R cells were continually grown in the presence of 5 μM AZD6244. For SILAC labeling, cells were grown for five doublings in arginine- and lysine-depleted media (as above) supplemented with either unlabeled L-arginine (42 mg/L) and L-lysine (71 mg/L) or equimolar amounts of heavy isotope labeled [13C6,15N4]arginine (Arg10) and [13C6]lysine (Lys6) (Cambridge Isotope Laboratories). Proliferation was quantified using Cell-Titer Glo Luminescent Cell Viability Assay (Promega). Fresh media containing DMSO or kinase inhibitors was added daily and experiments were performed in triplicate.

c-Myc = c-Myc protein and RNA levels in SUM159 cells (western blot, qRT-PCR); assay type: cell-based, human; settings: 5 μM AZD6244
Experimental: Western blotting and RTK arrays: Western blotting and RTK array analysis were performed as previously described (Amin et al., 2010). Amin et al. 2010 Sci Transl Med 2, 16ra17. Detailed methods and antibodies are provided in Supplemental Experimental Procedures.
qRT-PCR: Total RNA was isolated from human breast cancer cell lines or murine tumors using the RNeasy® Plus Mini Kit (Qiagen). Real-time RT-PCR was performed on diluted cDNA using the Applied Biosystems 7500 Fast Real-Time PCR System (standard program) and inventoried TaqMan® Gene Expression Assays. Each cDNA sample was assayed in triplicate. Fold change with respect to the calibrator represents the average of the triplicate values, with error bars representing the range of the mean (95% confidence).
(§1) Western blotting: Proteins from cell lysates were separated by SDS-PAGE chromatography, transferred to nitrocellulose membranes, and probed with the indicated primary antibodies. Antibodies recognizing pAKT (S473), pAKT (T308), AURA, pAXL (Y702), AXL, c-Myc, DDR1, EGFR, pERK1/2 (T202/Y204), pHER3 (Y1197), MAX, pMEK1/2 (S217/S221), MEK1/2, MKP3, pP70S6K (T389), pPDGFRβ (Y751), pPDGFRβ (Y1009), pPDGFR (Y857), PDGFRβ, pRAF (S338), pRSK1 (T359/S363), pVEGFR2 (Y1175), VEGFR2 were obtained from Cell Signaling Technology. Antibodies for Cyclin A2, Cyclin B1, Cyclin D1, ERK2, RAF, and pRAF (S259) were obtained from Santa Cruz Biotechnology. The antibody recognizing Bim was obtained from Chemicon. The antibody recognizing p-c-Myc (S62) was obtained from Abeam. Secondary HRP-anti-rabbit and HRP-anti-goat secondary antibodies were from Jackson Immunoresearch Laboratories and Santa Cruz Biotechnology, respectively. Western blots were visualized by incubation with SuperSignal West Pico Chemiluminescent Substrate (Thermo Scientific).

C3Tag tumors = experiment: In vivo tumorigenesis experiment, C3Tag TNBC GEMM (tumor volume); parameters: species or system mouse; settings: 21 days, AZD6244 20 mg/kg, sorafenib 30 mg/kg in diet
Experimental: In vivo tumorigenesis experiments: Animal handling and procedures were approved by the University of North Carolina at Chapel Hill Institutional Animal Care and Use Committee and followed the NIH guidelines. Male C3Tag mice were bred with wild type females to produce experimental offspring. Mice were examined for tumors weekly until a palpable mass was found. Treatment began the same day. Tumor size was assessed twice weekly by caliper measurements of tumor areas ((width)2×length))/2 for 21 days. Percent change of tumor volume was calculated using (Final volume−Initial Volume)/Initial Volume and graphed using R (http://www.r-project.org/). Drugs were incorporated into the diet of mice to achieve a daily dose of AZD6244 20 mg/kg and sorafenib 30 mg/kg. Food was provided ab libitum and the amount of daily food intake was pre-determined using Jackson Labs Phenome Database. Tumors at harvest were cut in half and either snap-frozen in liquid nitrogen and stored at −80° C. or placed in neutral buffered 10% formalin solution.

ERK = experiment: MEK/ERK activation in C3Tag tumors (western blot); assay type: in vivo, mouse; settings: AZD6244 20 mg/kg 28 days; sorafenib 30 mg/kg 26 days
Experimental: Treatment began the same day. Tumor size was assessed twice weekly by caliper measurements of tumor areas ((width)2×length))/2 for 21 days. […] Drugs were incorporated into the diet of mice to achieve a daily dose of AZD6244 20 mg/kg and sorafenib 30 mg/kg. […] Tumors at harvest were cut in half and either snap-frozen in liquid nitrogen and stored at −80° C. or placed in neutral buffered 10% formalin solution.
as §1, with “Western blots were visualized by incubation with SuperSignal West Pico Chemiluminescent Substrate (Thermo Scientific).” left out

## Cn1cnc2c(F)c(Nc3ccc(Br)cc3Cl)c(C(=O)NOCCO)cc21 [AZD6244]
SUM159 cells
  growth of SUM159 cells: inhibited growth
c-Myc
  c-Myc protein and mRNA: rapid loss of c-Myc protein and c-Myc mRNA
C3Tag tumors
  mice with tumor regression: 30%
ERK
  tumor MEK and ERK compared to untreated animals: strongly activated
